From patent publication US10450275B2, “Compounds and methods for treating cancer, neurological disorders, ethanol withdrawal, anxiety, depression, and neuropathic pain” (Board of Regents, The University of Texas System, priority 2013, dated 2019) come the findings set out here.

Series [1] deals with T1, human M1 muscarinic receptor (Homo sapiens, UniProt P11229).
T1 sequence (P11229 1-460): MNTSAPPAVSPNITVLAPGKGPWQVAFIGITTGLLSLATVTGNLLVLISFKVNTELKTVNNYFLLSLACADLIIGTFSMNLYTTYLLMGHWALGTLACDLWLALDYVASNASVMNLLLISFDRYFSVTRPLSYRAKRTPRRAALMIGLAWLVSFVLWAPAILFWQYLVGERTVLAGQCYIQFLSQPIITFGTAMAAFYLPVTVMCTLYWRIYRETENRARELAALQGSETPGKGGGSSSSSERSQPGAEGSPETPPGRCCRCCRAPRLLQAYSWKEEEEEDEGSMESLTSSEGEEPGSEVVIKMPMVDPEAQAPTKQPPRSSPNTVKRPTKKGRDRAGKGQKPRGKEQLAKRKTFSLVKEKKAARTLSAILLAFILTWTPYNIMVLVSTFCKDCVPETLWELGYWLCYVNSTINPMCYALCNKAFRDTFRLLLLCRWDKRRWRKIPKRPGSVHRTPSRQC
Kind of series: human M1 muscarinic receptor antagonist activity. The format is cell-based. The note with it: 3 μM.

In series [2] the target is T2, striatal-enriched protein tyrosine phosphatase (STEP) (Homo sapiens, UniProt P54829).
T2 sequence (P54829 1-565): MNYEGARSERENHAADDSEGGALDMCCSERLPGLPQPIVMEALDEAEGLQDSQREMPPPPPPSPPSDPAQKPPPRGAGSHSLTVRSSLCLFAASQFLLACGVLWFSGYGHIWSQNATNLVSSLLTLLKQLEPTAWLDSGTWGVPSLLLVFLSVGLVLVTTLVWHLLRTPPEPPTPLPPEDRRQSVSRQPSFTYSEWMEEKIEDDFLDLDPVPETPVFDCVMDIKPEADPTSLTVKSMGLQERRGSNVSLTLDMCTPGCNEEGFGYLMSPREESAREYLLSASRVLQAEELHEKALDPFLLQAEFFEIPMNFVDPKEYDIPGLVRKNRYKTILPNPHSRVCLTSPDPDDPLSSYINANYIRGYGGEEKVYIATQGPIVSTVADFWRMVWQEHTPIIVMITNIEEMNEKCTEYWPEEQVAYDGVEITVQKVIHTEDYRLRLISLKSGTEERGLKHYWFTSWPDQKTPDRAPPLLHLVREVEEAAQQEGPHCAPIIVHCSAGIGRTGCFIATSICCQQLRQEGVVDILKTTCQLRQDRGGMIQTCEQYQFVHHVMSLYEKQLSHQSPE
Nature of the series: striatal-enriched protein tyrosine phosphatase (STEP) inhibition. It counts as biochemical. The note with it: read-out: Potency, striatal-enriched protein tyrosine phosphatase (STEP) inhibitor.

For another series, the target named is fatty acid synthase (Homo sapiens, UniProt P49327). Nature of the series: fatty acid synthase inhibition. The format is biochemical. The note with it: read-out: Potency, fatty acid synthase inhibitor.
Sequence of fatty acid synthase (P49327 whole entry): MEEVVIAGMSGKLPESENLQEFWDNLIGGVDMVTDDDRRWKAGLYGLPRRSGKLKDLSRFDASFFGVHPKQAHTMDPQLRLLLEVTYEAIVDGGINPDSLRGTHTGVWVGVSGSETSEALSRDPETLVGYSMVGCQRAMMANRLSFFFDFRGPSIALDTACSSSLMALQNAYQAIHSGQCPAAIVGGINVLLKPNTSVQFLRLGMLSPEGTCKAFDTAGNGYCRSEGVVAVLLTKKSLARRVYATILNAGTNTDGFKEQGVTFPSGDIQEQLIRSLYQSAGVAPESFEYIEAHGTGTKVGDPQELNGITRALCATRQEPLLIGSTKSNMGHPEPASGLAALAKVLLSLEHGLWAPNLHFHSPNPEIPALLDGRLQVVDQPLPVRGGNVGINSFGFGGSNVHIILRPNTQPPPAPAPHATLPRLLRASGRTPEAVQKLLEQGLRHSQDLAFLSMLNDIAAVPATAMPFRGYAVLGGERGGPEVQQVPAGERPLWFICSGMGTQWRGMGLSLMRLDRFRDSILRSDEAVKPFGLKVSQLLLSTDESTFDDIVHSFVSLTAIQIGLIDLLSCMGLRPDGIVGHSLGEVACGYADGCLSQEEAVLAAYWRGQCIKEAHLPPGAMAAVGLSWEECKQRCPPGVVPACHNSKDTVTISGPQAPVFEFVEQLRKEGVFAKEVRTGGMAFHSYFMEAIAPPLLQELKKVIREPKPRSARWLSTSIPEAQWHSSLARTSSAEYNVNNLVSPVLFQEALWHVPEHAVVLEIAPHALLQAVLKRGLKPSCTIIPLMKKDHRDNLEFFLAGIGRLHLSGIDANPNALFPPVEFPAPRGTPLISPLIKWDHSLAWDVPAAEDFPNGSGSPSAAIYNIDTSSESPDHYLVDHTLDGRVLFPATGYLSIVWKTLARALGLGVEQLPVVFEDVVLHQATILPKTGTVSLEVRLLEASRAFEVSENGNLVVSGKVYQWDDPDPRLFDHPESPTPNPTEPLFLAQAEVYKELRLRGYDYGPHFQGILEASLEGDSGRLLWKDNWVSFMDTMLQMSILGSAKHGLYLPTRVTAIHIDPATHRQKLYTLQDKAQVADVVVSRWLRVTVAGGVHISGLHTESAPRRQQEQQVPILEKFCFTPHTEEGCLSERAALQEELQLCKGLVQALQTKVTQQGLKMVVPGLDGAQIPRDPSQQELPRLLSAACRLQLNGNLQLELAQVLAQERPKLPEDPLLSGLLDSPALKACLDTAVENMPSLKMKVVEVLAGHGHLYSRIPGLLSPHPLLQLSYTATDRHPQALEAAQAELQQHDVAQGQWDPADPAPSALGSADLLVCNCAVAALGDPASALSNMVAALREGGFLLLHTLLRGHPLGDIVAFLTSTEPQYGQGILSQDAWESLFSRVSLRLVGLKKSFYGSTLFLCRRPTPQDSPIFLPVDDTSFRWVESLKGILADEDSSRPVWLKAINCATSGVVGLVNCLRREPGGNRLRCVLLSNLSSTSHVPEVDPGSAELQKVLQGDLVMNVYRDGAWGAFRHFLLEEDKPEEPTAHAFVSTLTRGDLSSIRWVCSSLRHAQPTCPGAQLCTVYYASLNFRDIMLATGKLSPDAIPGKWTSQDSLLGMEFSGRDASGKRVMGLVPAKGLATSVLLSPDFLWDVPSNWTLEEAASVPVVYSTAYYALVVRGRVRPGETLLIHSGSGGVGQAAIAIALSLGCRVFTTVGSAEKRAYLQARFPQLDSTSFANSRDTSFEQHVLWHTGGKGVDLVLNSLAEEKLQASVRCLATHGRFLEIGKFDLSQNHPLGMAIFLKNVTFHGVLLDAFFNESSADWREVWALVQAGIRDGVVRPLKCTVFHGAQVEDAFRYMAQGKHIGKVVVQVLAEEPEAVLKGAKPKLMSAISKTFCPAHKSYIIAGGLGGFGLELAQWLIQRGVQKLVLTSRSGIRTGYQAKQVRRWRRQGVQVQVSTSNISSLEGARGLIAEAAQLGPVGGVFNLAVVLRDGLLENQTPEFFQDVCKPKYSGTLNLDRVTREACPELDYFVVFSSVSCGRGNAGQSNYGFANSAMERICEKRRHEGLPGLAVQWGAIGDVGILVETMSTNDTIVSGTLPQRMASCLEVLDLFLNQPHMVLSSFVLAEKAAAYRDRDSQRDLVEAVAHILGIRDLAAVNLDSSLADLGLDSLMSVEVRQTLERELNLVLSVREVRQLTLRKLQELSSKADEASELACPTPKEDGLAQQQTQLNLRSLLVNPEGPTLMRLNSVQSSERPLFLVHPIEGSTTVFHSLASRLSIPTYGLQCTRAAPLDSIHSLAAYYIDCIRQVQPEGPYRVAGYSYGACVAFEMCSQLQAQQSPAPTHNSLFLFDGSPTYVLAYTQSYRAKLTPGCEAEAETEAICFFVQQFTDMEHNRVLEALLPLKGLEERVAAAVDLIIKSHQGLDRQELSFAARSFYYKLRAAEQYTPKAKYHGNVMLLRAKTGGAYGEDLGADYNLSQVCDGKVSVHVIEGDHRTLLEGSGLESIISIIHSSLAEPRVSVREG
For series [3], the system named is Y. pestis topoisomerase I. It counts as biochemical. The conditions noted are these: 10 μM.
The target in series [4] is mycobacterium tuberculosis bioA enzyme (Mycobacterium tuberculosis, UniProt P9WQ81). Nature of the series: mycobacterium tuberculosis bioA enzyme inhibition. The note with it: read-out: Potency, mycobacterium tuberculosis bioA enzyme inhibitor. The format is biochemical.
Sequence of mycobacterium tuberculosis bioA enzyme (P9WQ81 whole entry): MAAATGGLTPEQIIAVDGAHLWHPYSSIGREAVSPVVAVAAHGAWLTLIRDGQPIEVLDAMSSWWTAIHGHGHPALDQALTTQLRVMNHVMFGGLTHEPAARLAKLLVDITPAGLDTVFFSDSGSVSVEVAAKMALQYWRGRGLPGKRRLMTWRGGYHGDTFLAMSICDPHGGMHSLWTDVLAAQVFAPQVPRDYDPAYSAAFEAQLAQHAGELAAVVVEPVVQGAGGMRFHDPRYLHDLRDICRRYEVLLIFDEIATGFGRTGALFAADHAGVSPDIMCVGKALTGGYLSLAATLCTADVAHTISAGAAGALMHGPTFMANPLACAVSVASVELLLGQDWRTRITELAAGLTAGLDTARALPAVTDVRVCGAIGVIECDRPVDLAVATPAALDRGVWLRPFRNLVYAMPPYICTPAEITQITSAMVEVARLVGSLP
The target in series [5] is T3, microphthalmia-associated transcription factor (MITF) (Homo sapiens, UniProt O75030).
T3 sequence (O75030 1-526): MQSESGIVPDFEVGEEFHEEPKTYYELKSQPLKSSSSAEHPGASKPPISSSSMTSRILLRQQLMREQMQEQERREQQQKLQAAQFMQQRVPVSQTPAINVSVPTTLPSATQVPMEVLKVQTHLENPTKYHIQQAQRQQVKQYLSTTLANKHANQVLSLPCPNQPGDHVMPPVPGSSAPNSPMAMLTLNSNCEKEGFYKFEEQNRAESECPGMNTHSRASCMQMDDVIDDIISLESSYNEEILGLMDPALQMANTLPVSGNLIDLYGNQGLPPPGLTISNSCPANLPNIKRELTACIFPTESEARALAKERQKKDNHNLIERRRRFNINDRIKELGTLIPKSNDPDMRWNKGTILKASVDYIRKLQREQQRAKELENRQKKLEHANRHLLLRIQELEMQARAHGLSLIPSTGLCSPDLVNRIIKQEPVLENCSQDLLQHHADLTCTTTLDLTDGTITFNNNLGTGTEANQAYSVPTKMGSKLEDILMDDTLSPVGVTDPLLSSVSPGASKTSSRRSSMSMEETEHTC
Kind of series: microphthalmia-associated transcription factor (MITF) activation. It counts as cell-based. The conditions noted are these: read-out: Potency (AC40), microphthalmia-associated transcription factor (MITF) activator.

The target of series [6] is serotonin 5A receptor (5HTR5A) (Homo sapiens, UniProt P47898). Nature of the series: serotonin 5A receptor (5HTR5A) inverse agonist activity. It counts as cell-based. The conditions noted are these: 9.3 μM.
Sequence of serotonin 5A receptor (5HTR5A) (P47898 whole entry): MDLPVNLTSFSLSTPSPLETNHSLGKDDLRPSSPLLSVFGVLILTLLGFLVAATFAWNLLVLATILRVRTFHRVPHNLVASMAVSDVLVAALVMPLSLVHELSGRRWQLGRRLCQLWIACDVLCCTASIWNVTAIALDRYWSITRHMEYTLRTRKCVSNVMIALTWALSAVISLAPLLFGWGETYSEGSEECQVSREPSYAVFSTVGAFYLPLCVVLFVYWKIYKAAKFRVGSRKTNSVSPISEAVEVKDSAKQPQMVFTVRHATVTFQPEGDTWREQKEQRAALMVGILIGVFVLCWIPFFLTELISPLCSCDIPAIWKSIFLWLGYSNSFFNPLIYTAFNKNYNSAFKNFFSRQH
A short description of series [7]: Pharmacokinetic profile of JJS-1-166 in mice (plasma, LC-MS). The format is in vivo, C57Bl/6j mice. The conditions noted are these: for bioavailability: relative to the area under the curve for IV administration. The protocol:
FIG. 1. Nine C57Bl/6j male mice (2-3 months old). Prior to PK evaluation, 3 animals were dosed with vehicle and were used to identify the standard curve using liquid chromatography-mass spectrometry (LC-MS) and as controls. Animals were randomized into 3 groups (n=3 per group). One group dosed Intravenously (IV), one group orally (PO), and one group subcutaneously (SC) with 10 mg/kg of the compound. […] (The first 4 collections are retro-orbital and the last one is terminal together with collection of the brain. Brain and blood will be flash frozen in liquid nitrogen and kept in −80° C. for later analysis. The concentration of compounds in the blood samples and brain tissues will be measured using LC-MS method.) We determined the blood brain barrier (BBB) permeability and pharmacokinetic (PK) profile of JJS-1-166 (phase I), and subsequently investigated the efficacy of JJS-1-166 in an Alzheimer's disease (AD) mouse model. LC-MS/MS Method Development for Compound JJS-1-166 [table] [table]

Series [8] is described as follows: Blood brain barrier permeability / brain concentration and brain clearance of JJS-1-166 in mice. The format is in vivo, C57Bl/6j mice. The note with it: for brain exposure / concentration at 3 h: mouse; for concentration at 3 h: male, C57Bl/6j, brain, 10 mg/kg. The procedure:
FIG. 1. Nine C57Bl/6j male mice (2-3 months old). Prior to PK evaluation, 3 animals were dosed with vehicle and were used to identify the standard curve using liquid chromatography-mass spectrometry (LC-MS) and as controls. Animals were randomized into 3 groups (n=3 per group). One group dosed Intravenously (IV), one group orally (PO), and one group subcutaneously (SC) with 10 mg/kg of the compound. From each animal blood will be collected 5 times: baseline (before the single dose); 5 minute; 30 minute; 1 hour; 3 hour after the single dose of the compound. (The first 4 collections are retro-orbital and the last one is terminal together with collection of the brain. Brain and blood will be flash frozen in liquid nitrogen and kept in −80° C. for later analysis. The concentration of compounds in the blood samples and brain tissues will be measured using LC-MS method.) FIG. 6. 3 day brain clearance study. A C57Bl/6j mouse was treated with 10 mg/kg JJS-1-166. After 3 days, the level of JJS-1-166 in the brain was assessed to ensure that all or a majority of the drug had been cleared. We determined the blood brain barrier (BBB) permeability and pharmacokinetic (PK) profile of JJS-1-166 (phase I), and subsequently investigated the efficacy of JJS-1-166 in an Alzheimer's disease (AD) mouse model. LC-MS/MS Method Development for Compound JJS-1-166 [table] [table]

Assay in series [9]: as above
It counts as in vivo, C57Bl/6j mice. The conditions noted are these: time point 24 h, individual animals.

Setting [10] is: time point 3 h, individual animals.
The mark [11] stands for this setting: time point 72 h, individual animals.

Where “and” joins values, the source holds several entries; their conditions need not be identical. Identical values can stand only once. Like-named read-outs stand apart in the source and are kept apart here.

For `O=C(c1cc(Cl)cc(Cl)c1)N1CC[C@@H]2C[C@H]1c1cc(N3CCCCC3)ccc12`, the “Potency, human M1 muscarinic receptor antagonist” value in [1] was 69% (3 μM).

Take `N#Cc1ccc(C(=O)N2CC[C@@H]3C[C@H]2c2cc(-c4ccccc4)ccc23)cc1`: the inhibition at 20 µM in series [2] was 69%.

In the case of `COc1ccc(NC(=S)N2CCN(c3ccc4c(c3)[C@@H]3CCN(C(=O)OCc5ccccc5)[C@H]4C3)CC2)c(OC)c1`, the inhibition at 15 µM at fatty acid synthase was determined as 57%.

Regarding `O=C(OCc1ccccc1)N1CC[C@@H]2C[C@H]1c1c(Cl)cccc12`, the “Potency, Y. pestis topoisomerase I inhibitor” value in series [3] is listed as 61% (10 μM).

Take `COc1ccc(-c2ccc3c(c2)[C@@H]2C[C@H]3CCN2)cc1`: in series [4], the inhibition at 10 µM is 91%.

As to `CCCCNc1ccc2c(c1)[C@@H]1C[C@H]2CCN1C(=O)OCc1ccccc1`, the EC40 in [5] stood at 3.3 µM.

Turning to `Clc1cccc(CN2CC[C@@H]3C[C@H]2c2cc(N4CCCCC4)ccc23)c1`, the “Potency, serotonin 5A receptor (5HTR5A) inverse agonist” value in [6] was 27% (9.3 μM).

For the compound `FC(F)(F)c1ccc(-c2ccc3c(c2)[C@@H]2C[C@H]3CCN2Cc2ccccc2)cc1` (stereo in doubt) [21{2,7}, 2-Benzyl-8-(4-(trifluoromethyl)phenyl)-2,3,4,5-tetrahydro-1H-1,5-methanobenzo[c]azepine], the melting point is 101 to 103 °C.

As to `COc1ccc(S(=O)(=O)N2CC[C@@H]3C[C@H]2c2cc(N4CCOCC4)ccc23)cc1` (stereo in doubt) [30{2,2,30}, 4-(2-((4-Methoxyphenyl)sulfonyl)-2,3,4,5-tetrahydro-1H-1,5-methanobenzo[c]azepin-8-yl)morpholine], the melting point was 176 to 177 °C.

`CN1CCN(c2ccc3c(c2)[C@H]2CC3CCN2C(=O)OCc2ccccc2)CC1` [JJS-1-166]: the concentration at 24 h in series [7] (C57Bl/6j, mouse, plasma, time point 24 h, individual animals, read-out: Drug concentration in the Plasma) was determined as 0.14 ng/g; in series [9] (C57Bl/6j, mouse, brain, 10 mg/kg, read-out: Drug concentration in the Brain) it was 1.76 ng/g. In addition, the “plasma concentration (Cmax)” value is reported as “greater than 300 ng/dL” in series [7] (SC administration, 10 mg/kg, at 1 hour, mouse); “greater than 1500 ng/dL” in series [7] (intravenous (IV) administration, 10 mg/kg, at 5 minutes, mouse); “greater than 60 ng/dL” in series [7] (oral (PO) administration, 10 mg/kg, at 30 min, mouse). Also, the “time for which detectable plasma levels were maintained” value in series [7] (after SC, OP, and IV administration, mouse) is “greater than 150 minutes”. Also, the concentration at 3 h in series [7] (male, C57Bl/6j, mouse, plasma, 10 mg/kg, time point 3 h, individual animals, read-out: Drug concentration in the Plasma) was 156 ng/g; in [8] (time point 3 h, individual animals, read-out: Drug concentration in the Brain), 1570 ng/g; in [8] (sc, 3 hours after subcutaneous (SC) administration, read-out: brain concentration), 15 ng/mL. The bioavailability came to 7% in [7] (male, C57Bl/6j, plasma, oral, 10 mg/kg, mouse, read-out: OP bioavailability) and 45% in [7] (male, C57Bl/6j, plasma, subcutaneous, 10 mg/kg, mouse, read-out: SC bioavailability). Also, the pharmacokinetic properties entry in [7] (mouse, overall statement) is “acceptable”. Moreover, the “Drug concentration in the Plasma” value in series [7] (setting [10]) is 136.0 ng/g and 209.0 ng/g; in [7] (time point 24 h, individual animals), 0.163 ng/g and 0.0913 ng/g; in series [7] (setting [11]), “No Peak”. In addition, the brain exposure result in [8] (SC administration, 3 hours) was “high level of brain exposure”; in series [8] (overall statement), “adequate brain exposure”. The “Drug concentration in the Brain” value is 1100.0 ng/g and 1840.0 ng/g in series [8] (setting [10]); “No Peak” in series [8] (setting [11]); 1.63 ng/g and 1.28 ng/g in series [9].

For orientation: melting point means the temperature of the solid-liquid transition. What is called bioavailability is dose-corrected exposure relative to a reference, in per cent.
